For orientation: inhibition means the drop in the measured response relative to a control, in per cent.

Results on three compounds are retold here after patent US20030092637A1, “Novel compounds” (priority 2000, published 2003).

The experiment has as its system transformed human vascular endothelial cells (ECV cells). The experiment is described as follows: Cellular growth assay (crystal violet), ECV cells. It is filed as cell-based.

Method: Human embryonic lung fibroblasts (HFL-1 cells) and transformed endothelial cells (ECV cells) were obtained. Monolayer cultures were maintained on plastic in Eagle's MEM (Life Technologies, Ltd, Renfrewshire, UK). The medium was supplemented with 10% FCS (In Vitro AB, Stockholm, Sweden), 2 mM L-glutamine (ICN Biochemicals), penicillin (100 units/ml) and streptomycin (100 μg/ml) Cells were regularly checked for mycoplasma using GEN-PROBE Rapid detection system (Skafte & Claesson, Mölndal, Sweden).
In brief, cells were harvested by trypsinisation and seeded into 96-well microculture plates at 3000-5000 cells/well in Ham's F-12 medium (Sigma) supplemented with insulin (10 ng/ml), transferrin (25 ng/ml) and 10% FCS. After 4 h of plating, the cells were serum-starved for 24 h. […] Controls without growth factor and controls with different concentrations of DMSO were included. After 72, 96 and 120 h of growth, cells were fixed in glutaraldehyde, and cell nuclei were stained with crystal violet (Merck, Darmstadt, Germany). After washing and cell lysis for 24 h in 1% Triton X-100, the amount of bound dye was measured at 595 nm in a microplate photometer (Titertek multiscan). Results were corrected for DMSO effects.

As for `NCCC[C@](N)(C(=O)O)C(F)F` [DFMO, α-difluoromethylornithine], for the setting “Homo sapiens, Endothelial cell, 5 mM DFMO only, cells dependent on 1 μM spermin”, the inhibition at 5000 µM was 5%.

Regarding `Oc1ccc2cc(O[C@@H]3OC[C@@H](O)[C@H](O)[C@H]3O)ccc2c1` [Xyl-2-Nap-6-OH, 6-hydroxy-2-naphthalenyl-β-D-xylopyranoside], the “inhibition of growth of ECV cells” value (0.05 mM Xyl-2-Nap-6-OH, untreated cells as reference) is on record as 9% and the “inhibition of growth of ECV cells” value (Xyl-2-Nap-6-OH alone (concentration not restated; 0.2 mM in the compared combination)) is reported as 31%.

In the case of `Cc1ccc(C(=O)Nc2ccc(S(=O)(=O)O)c3cc(S(=O)(=O)O)cc(S(=O)(=O)O)c23)cc1NC(=O)c1cccc(NC(=O)Nc2cccc(C(=O)Nc3cc(C(=O)Nc4ccc(S(=O)(=O)O)c5cc(S(=O)(=O)O)cc(S(=O)(=O)O)c45)ccc3C)c2)c1` [suramin], at 200 µM the inhibition (Homo sapiens, Endothelial cell, 0.2 mM suramin, untreated cells as reference) was 20%.
